Results on ten molecules are retold here after patent publication US10717750B2, “68Ga-labeled NOTA-chelated PSMA-targeted imaging and therapeutic agents” (THE JOHNS HOPKINS UNIVERSITY, priority 2009, dated 2020).

“Also recorded” adds a separate entry of the source. Where two headings read alike, the source gives them in different places.

One data set deals with T1, PSMA (Homo sapiens, UniProt Q04609).
T1 construct: endogenous in cells; host or cells: LNCaP cell lysate
The experiment in a line: PSMA inhibition assay (fluorescence-based, NAAG hydrolysis, Amplex Red). The format is biochemical. As to conditions: for Ki: lysates of LNCaP cell extracts, 4 μM NAAG, Cheng-Prusoff conversion. How it is done:
The PSMA inhibitory activity of 1, 2 and DKFZ-PSMA-11 and the corresponding natural Ga-labeled analogs Ga-1 and Ga-2 were determined using a fluorescence-based assay according to a previously reported procedure (Banerjee et al. (2011) Angewandte Chemie 50, 9167-70) (Table 1). Briefly, lysates of LNCaP cell extracts (25 μL) were incubated with the inhibitor (12.5 μL) in the presence of 4 μM N-acetylaspartylglutamate (NAAG) (12.5 μL) for 2 h. The amount of the glutamate released by NAAG hydrolysis was measured by incubating with a working solution (50 μL) of the Amplex Red Glutamic Acid Kit (Life Technologies, Grand Island, N.Y.) for 1 h.
Fluorescence was measured with a VICTOR3V multilabel plate reader (Perkin Elmer Inc., Waltham, Mass.) with excitation at 490 nm and emission at 642 nm. Inhibition curves were determined using semi-log plots and IC50 values were determined at the concentration at which enzyme activity was inhibited by 50%. Enzyme inhibitory constants (Ki values) were generated using the Cheng-Prusoff conversion (Cheng et al. (1973) Biochemical pharmacology 22, 3099-108). Assays were performed in triplicate. Data analysis was performed using GraphPad Prism version 4.00 for Windows (GraphPad Software, San Diego, Calif.).

The nature of data set [1]: Hydrophilicity/lipophilicity judged from HPLC retention (RP C8). It counts as physicochemical. The conditions noted are these: based on HPLC retention time.
The conditions of data set [2]: chelating agent with gallium, cited from earlier work.
Data set [3] deals with PSMA+ PC3 PIP and PSMA− PC3 flu tumors. The experiment in a line: Tissue biodistribution in mice bearing PSMA+ PC3 PIP and PSMA− PC3 flu tumors. The conditions noted are these: mouse, in vivo.
Data set [4] shares this test system.
Setting [5] is: 1 h post-injection, mean ± SD, n = 4.
Setting [6] is: 2 h post-injection, mean ± SD, n = 4.
[7] abbreviates: 3 h post-injection, mean ± SD, n = 4.

T1 sequence (Q04609 whole entry): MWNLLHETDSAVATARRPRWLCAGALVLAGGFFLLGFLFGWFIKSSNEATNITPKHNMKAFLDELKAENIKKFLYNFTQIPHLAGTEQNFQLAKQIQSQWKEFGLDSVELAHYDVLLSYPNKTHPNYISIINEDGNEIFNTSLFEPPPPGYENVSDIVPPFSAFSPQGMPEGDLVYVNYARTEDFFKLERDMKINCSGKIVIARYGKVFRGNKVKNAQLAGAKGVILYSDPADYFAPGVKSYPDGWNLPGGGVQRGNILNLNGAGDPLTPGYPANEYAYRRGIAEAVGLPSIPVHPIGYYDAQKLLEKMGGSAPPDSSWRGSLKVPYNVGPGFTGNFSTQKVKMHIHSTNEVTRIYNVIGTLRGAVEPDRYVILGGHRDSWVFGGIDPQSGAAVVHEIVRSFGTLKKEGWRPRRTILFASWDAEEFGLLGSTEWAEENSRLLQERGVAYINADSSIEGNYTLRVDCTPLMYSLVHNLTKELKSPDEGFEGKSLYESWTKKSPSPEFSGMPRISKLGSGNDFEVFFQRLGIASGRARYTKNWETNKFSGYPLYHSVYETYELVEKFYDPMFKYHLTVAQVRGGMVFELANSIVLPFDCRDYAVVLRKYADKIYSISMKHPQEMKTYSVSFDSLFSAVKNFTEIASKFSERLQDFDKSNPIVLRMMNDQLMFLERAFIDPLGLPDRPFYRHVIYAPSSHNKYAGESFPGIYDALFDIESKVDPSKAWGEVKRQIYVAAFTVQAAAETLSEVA

With `O=C(O)CCC(NC(=O)NC(CCCCNC(=O)CCCCCCC(=O)NCCCCC(NC(=O)C(Cc1ccccc1)NC(=O)C(Cc1ccccc1)NC(=O)CN1CCN(CC(=O)O)CCN(CC(=O)O)CCN(CC(=O)O)CC1)C(=O)O)C(=O)O)C(=O)O` (centres unmarked) [Compound 1], the Ki at PSMA was 700 pM.
The same measure, in the same setting: in the case of `O=C(O)CCC(NC(=O)NC(CCCCNC(=O)CCCCCCC(=O)NC(CCCCNC(=S)Nc1ccc(CC2CN(CC(=O)O)CCN(CC(=O)O)CCN2CC(=O)O)cc1)C(=O)O)C(=O)O)C(=O)O` (centres unmarked) [Compound 2] it was 810 pM.
On to `O=C(O)CCc1ccc(O)c(CN(CCN(CC(=O)O)Cc2cc(CCC(=O)NCCCCCC(=O)NCCCC[C@H](NC(=O)N[C@@H](CCC(=O)O)C(=O)O)C(=O)O)ccc2O)CC(=O)O)c1` [DKFZ-PSMA-11, Glu-urea-Lys-(Ahx)-HBED-CC, reference compound], for which, at PSMA, the “PSMA-binding affinity relative to Ga-1 and Ga-2” value is on record as “ten-fold higher”; the Ki is 30 pM. In addition, the “hydrophilicity/lipophilicity rank in the series” value in data set [1] is listed as “least hydrophilic; also recorded: most lipophilic”.
As for `O=C(O)CN1CCN(CC(=O)O)CCN(CC(=O)O)CCN(CC(=O)O)CC1` [DOTA, 1,4,7,10-tetraazacyclododecane-1,4,7,10-tetraacetic acid], the stability constant, KML, for 68Ga in data set [2] (the values are: log stability constant) is 21.3.
On PSMA, `O=C([O-])CN1CCN(CC(=O)[O-])CCN(CC(=O)NC(Cc2ccccc2)C(=O)NC(Cc2ccccc2)C(=O)NC(CCCCNC(=O)CCCCCCC(=O)NCCCCC(NC(=O)NC(CCC(=O)O)C(=O)O)C(=O)O)C(=O)O)CCN(CC(=O)[O-])CC1.[Ga+3]` (centres unmarked) [Ga-1] returned a Ki of 330 pM.
On the same count and under the same terms, the same measure for `O=C([O-])CN1CCN(CC(=O)[O-])CC(Cc2ccc(NC(=S)NCCCCC(NC(=O)CCCCCCC(=O)NCCCCC(NC(=O)NC(CCC(=O)O)C(=O)O)C(=O)O)C(=O)O)cc2)N(CC(=O)[O-])CC1.[Ga+3]` (centres unmarked) [Ga-2]: 380 pM.
In the case of `O=C([O-])CN(CCN(CC(=O)[O-])Cc1cc(CCC(=O)NCCCCCC(=O)NCCCCC(NC(=O)NC(CCC(=O)O)C(=O)O)C(=O)O)ccc1[O-])Cc1cc(CCC(=O)O)ccc1[O-].[Ga+3]` (centres unmarked) [Ga-DKFZ-PSMA-11], in data set [1], the “hydrophilicity/lipophilicity rank in the series” value is reported as “most hydrophilic”.
As to `O=C(O)CN1CCN(CC(=O)O)CCN(CC(=O)O)CC1` [NOTA, 1,4,7-triazacyclononane-1,4,7-trisacetic acid], the “stability constant, KML, for 68Ga” value in data set [2] is on record as 31.1.
Take `O=C([O-])CN1CCN(CC(=O)[O-])CC(Cc2ccc(NC(=S)NCCCCC(NC(=O)CCCCCCC(=O)NCCCCC(NC(=O)NC(CCC(=O)O)C(=O)O)C(=O)O)C(=O)O)cc2)N(CC(=O)[O-])CC1.[68Ga+3]` (centres unmarked) [^68Ga-2]: in data set [3], the “rate of clearance from tissues, comparison of the three radiotracers” value is on record as “fastest rate of clearance from all tissues”.
In the case of `O=C([O-])CN(CCN(CC(=O)[O-])Cc1cc(CCC(=O)NCCCCCC(=O)NCCCCC(NC(=O)NC(CCC(=O)O)C(=O)O)C(=O)O)ccc1[O-])Cc1cc(CCC(=O)O)ccc1[O-].[68Ga+3]` (centres unmarked) [^68Ga-DKFZ-PSMA-11, reference compound], in data set [1], the “hydrophilicity/lipophilicity rank in the series” value is on record as “most hydrophilic”. Besides, the “PSMA+ PC3 PIP-to-PSMA− PC3 flu ratio” value in data set [4] (1 h post-injection) was 46.62±7.57. Further, in data set [4] (setting [5]), the “PIP:blood ratio” value turned out to be 35.45 ± 13.43, the “PIP:flu (PSMA+ PC3 PIP-to-PSMA− PC3 flu tumor uptake ratio)” value turned out to be 46.62 ± 17.57, the “PSMA+ PC3 PIP tumor uptake” value is recorded as 25.96 ± 9.69 % ID/g and the “PSMA− PC3 flu tumor uptake” value amounted to 0.57 ± 0.14 % ID/g. In data set [4] (setting [5]), this molecule showed a blood uptake of 0.75 ± 0.20 % ID/g, a heart uptake of 0.42 ± 0.16 % ID/g, a kidney uptake of 133.24 ± 21.08 % ID/g and a liver uptake of 0.75 ± 0.19 % ID/g. In data set [4] (setting [5]), this molecule came in with a lung uptake of 2.21 ± 0.48 % ID/g, a muscle uptake of 0.32 ± 0.12 % ID/g, a salivary gland uptake of 1.42 ± 0.33 % ID/g and a small intestine uptake of 0.39 ± 0.09 % ID/g. For the same molecule, the spleen uptake in data set [4] (setting [5]) was 12.35 ± 3.75 % ID/g. Moreover, the “PSMA+ PC3 PIP-to-PSMA− PC3 flu ratio” value in data set [4] (2 h post-injection) was determined as 57.68±27.10. Further, in data set [4] (setting [6]), the “PIP:blood ratio” value was 51.88 ± 10.82, the “PIP:flu (PSMA+ PC3 PIP-to-PSMA− PC3 flu tumor uptake ratio)” value is reported as 57.68 ± 27.10, the “PIP:kidney ratio” value was found to be 0.24 ± 0.04 and the “PSMA+ PC3 PIP tumor uptake” value was 21.08 ± 1.17 % ID/g. In data set [4] (setting [6]), the “PSMA− PC3 flu tumor uptake” value was 0.41 ± 0.17 % ID/g, the blood uptake worked out at 0.41 ± 0.06 % ID/g, the heart uptake came out at 0.28 ± 0.06 % ID/g and the kidney uptake is 88.56 ± 20.09 % ID/g. In data set [4] (setting [6]), the liver uptake stood at 0.33 ± 0.05 % ID/g, the lung uptake is 2.07 ± 0.68 % ID/g, the muscle uptake is given as 0.19 ± 0.09 % ID/g and the salivary gland uptake was found to be 1.02 ± 0.22 % ID/g. In data set [4] (setting [6]), this molecule returned a small intestine uptake of 0.19 ± 0.07 % ID/g and a spleen uptake of 8.87 ± 1.50 % ID/g. The “PSMA+ PC3 PIP-to-PSMA− PC3 flu ratio” value in data set [4] (3 h post-injection) was determined as 110.57±21.27. Further, in data set [4] (setting [7]), the “PIP:blood ratio” value is 79.55 ± 9.83, the “PIP:kidney ratio” value was 0.22 ± 0.04, the “PIP:salivary gland ratio” value was found to be 31.40 ± 4.85 and the “PSMA+ PC3 PIP tumor uptake” value is given as 26.86±5.59 % ID/g. Also, in data set [4] (setting [7]), the “PSMA− PC3 flu tumor uptake” value was 0.25 ± 0.07 % ID/g, the blood uptake is 0.34 ± 0.06 % ID/g, the heart uptake turned out to be 0.20 ± 0.04 % ID/g and the kidney uptake came out at 119.54 ± 15.49 % ID/g. Besides, in data set [4] (setting [7]), the liver uptake is recorded as 0.38 ± 0.15 % ID/g, the lung uptake came to 1.26 ± 0.20 % ID/g, the muscle uptake was 0.14 ± 0.02 % ID/g and the salivary gland uptake is recorded as 0.86 ± 0.12 % ID/g. Also, in data set [4] (setting [7]), the small intestine uptake is reported as 0.17 ± 0.06 % ID/g and the spleen uptake was found to be 7.18 ± 2.25 % ID/g. For the same molecule, the “spleen uptake, comparison with ^68Ga-1 or ^68Ga-2” value in data set [4] (all time-points, P<0.04) is recorded as “higher spleen uptake”. Also, in data set [4] (up to 3 h after injection, P<0.001), the “salivary gland uptake, comparison with ^68Ga-1 and ^68Ga-2” value was “significantly higher salivary gland uptake”. Besides, the “uptake and retention in normal tissues (kidney, blood, spleen, salivary glands, PSMA-negative PC3 flu tumors), comparison” value in data set [4] (up to 3 h post-injection) was “highest uptake and retention”.
